US20250171432A1, “COMPOUNDS AND METHODS OF USE” (Tango Therapeutics, Inc., priority 2022, published 2025)

Legend:
Format in all cases: cell-based
[1] = tested on: HAP1 MTAP-deleted cell line; test: Viability assay (CellTiter-Glo), HAP1 MTAP-deleted; conditions: Homo sapiens, 168 h, HAP1 MTAP-deleted cells, 7 days
Procedure: All test compounds are maintained as 10 mM DMSO stocks.
On Day 0, MTAP-intact and MTAP-deleted cells are seeded in a 96-well plate, and incubated in a humidified, 5 or 10% CO2 tissue culture incubator for 16-24 hours. On Day 1, the test compounds are dispensed to wells at defined concentrations using a Tecan D300e digital dispenser (n=3), and the volume of DMSO is normalized to highest class volume (0.2%). The compound-treated plates are incubated for 7 days in a humidified, 5 or 10% CO2 tissue culture incubator.
On Day 7, the plates are removed from the tissue culture incubator and allowed to equilibrate to room temperature. Then either a ½% volume CellTiter-Glo Luminescent Cell Viability Assay reagent (Promega G7572) is added to each well, or the media is removed from every well and a 1:3 dilution of CellTiter-Glo 2.0 Cell Viability Assay reagent (Promega G9241) in 1×PBS is added. Ten minutes after addition, the luminescent signal is detected by an Envision plate reader. The data are plotted as % of the DMSO control wells for the MTAP-intact and the MTAP-deleted cell lines independently, and fitted to the 4-parameter logistic (4-PL) Hill equation with maximal effect constrained to 0. The fit was performed using GraphPad Prism or the default IC50 fitting procedure in Dotmatics Studies 5.4 as part of a customized data analysis protocol.

[2] = tested on: SDMA (PRMT5 activity) in HAP1 MTAP-deleted cell line; test: SDMA in-cell western assay, HAP1 MTAP-deleted; conditions: for IC50 / IC90: Homo sapiens, SDMA in-cell western, HAP1 MTAP-deleted cells, 24 hours compound incubation; for Hap1 MTAP intact/deleted ratio: ratio of SDMA IC50 in HAP1 MTAP-intact to HAP1 MTAP-deleted cell line
Procedure: (§1) The SAM-cooperative PRMT5 inhibitor, GSK3326595, was sourced from SelleckChem and maintained as a 10 mM DMSO stock. All test compounds are maintained as 10 mM DMSO stocks
(§2) On Day 0, MTAP-intact or MTAP-deleted cells are seeded in a 384-well plate, and incubated in a humidified, 5% CO2 tissue culture incubator for 16-24 hours. On Day 1, the test compounds are dispensed to wells at defined concentrations using a Tecan D300e digital dispenser (n=4), and the volume of DMSO is normalized to highest class volume. Each plate includes wells dosed with defined concentrations of GSK33226595 as a plate control. The compounds are incubated with cells for 24 hours in a humidified, 5% CO2 tissue culture incubator.
(§3) On Day 2, the compound-treated cells are fixed with a final concentration of 4% formaldehyde. The cells are then washed/permeabilized with 1×PBS+0.1% Triton X-100, and then blocked with 5% goat serum/1×TBS.
(§4) The cells are washed with 1×PBS+0.1% Triton X-100, and then washed again with ddH20. The plates are then imaged using a NIR fluorescent imager (LiCor Odyssey).
(§5) For data analysis, the SDMA signal is normalized to the DRAQ5 signal. Assay background is determined by the signal from wells treated with 1 μM GSK3326595, and subtracted from every well. The data are plotted as % of the DMSO control wells for the MTAP-intact and the MTAP-deleted cell lines independently, and fitted to the 4-parameter logistic (4-PL) Hill equation with maximal effect constrained to 0. The fit was performed using GraphPad Prism or the default IC50 fitting procedure in Dotmatics Studies 5.4 as part of a customized data analysis protocol.

[3] = tested on: SDMA (PRMT5 activity) in HAP1 MTAP-intact cell line; test: SDMA in-cell western assay, HAP1 MTAP-intact; conditions: SDMA in-cell western, HAP1 MTAP-intact cells, 24 hours compound incubation
Procedure: as §1, §2, §3, §4, §5

Row | Structure (SMILES) | IC50 [2] [nM] | IC90 [2] [nM] | IC50 ([3]; Homo sapiens, HAP1, 24 h) [nM] | IC50 [3] [nM] | IC50 [1] [nM] | Hap1 MTAP intact/deleted ratio [2]
1 | CCc1cc(NC(=O)C(=O)N2C[C@@H](C)CC[C@@H]2c2ccc3sc([C@H]4CN(C)C(C)(C)C4)nc3c2)cnc1N (single isomer, unassigned) [Compound 27] | < 5 | < 75 | 5 to 50 | – | < 100 | B (“B” indicates an IC50 ratio greater than or equal to 15 fold but lower than 30 fold)
2 | CCc1cc(NC(=O)C(=O)N2C[C@@H](C)CC[C@@H]2c2ccc3sc([C@H]4C[C@@H]5CN(C)C[C@@H]5C4)nc3c2)cnc1N (single isomer, unassigned) [Compound 33] | < 5 | < 75 | > 50 | – | < 100 | A (“A” indicates an IC50 ratio greater than or equal to 30 fold)
3 | C[C@H]1CC[C@H](c2ccc3sc(C4CCN(C)C(C)(C)C4)nc3c2)N(C(=O)C(=O)Nc2cnc(N)c(C3COC3)c2)C1 (single isomer, unassigned) [Compound 34] | < 5 | < 75 | 5 to 50 | – | < 100 | C (“C” indicates an IC50 ratio of less than 15 fold)
4 | CCc1cc(NC(=O)C(=O)N2C[C@@H](C)CC[C@@H]2c2ccc3sc([C@H]4C[C@H](N(C)C)C4)nc3c2)cnc1N (single isomer, unassigned) [Compound 43] | < 5 | < 75 | > 50 | – | < 100 | A (“A” indicates an IC50 ratio greater than or equal to 30 fold)
5 | CCc1cc(NC(=O)C(=O)N2C[C@@H](C)CC[C@@H]2c2ccc3cn(C4CCN(C)C(C)(C)C4)nc3c2)cnc1N (single isomer, unassigned) [Compound 48] | < 5 | < 75 | 5 to 50 | – | < 100 | C (“C” indicates an IC50 ratio of less than 15 fold)
6 | CCc1cc(NC(=O)C(=O)N2C[C@@H](C)CC[C@@H]2c2ccc3sc([C@@H]4CN(C)C(C)(C)C4)nc3c2)cnc1N (single isomer, unassigned) [Compound 56] | < 5 | < 75 | 5 to 50 | – | < 100 | B (“B” indicates an IC50 ratio greater than or equal to 15 fold but lower than 30 fold)
7 | CCc1cc(NC(=O)C(=O)N2C[C@@H](C)CC[C@@H]2c2ccc3sc([C@H]4C[C@H](C)CN(C)C4)nc3c2)cnc1N (single isomer, unassigned) [Compound 75] | 5 to 50 | < 75 | > 50 | – | < 100 | B (“B” indicates an IC50 ratio greater than or equal to 15 fold but lower than 30 fold)
8 | CCc1cc(NC(=O)C(=O)N2C[C@@H](C)CC[C@@H]2c2ccc3cn(C4CN(C)CC(C)(C)C4)nc3c2)cnc1N (single isomer, unassigned) [Compound 78] | < 5 | < 75 | – | > 50 | < 100 | B (“B” indicates an IC50 ratio greater than or equal to 15 fold but lower than 30 fold)
9 | CCc1cc(NC(=O)C(=O)N2C[C@@H](C)CC[C@@H]2c2ccc3cn(C4CCCN(C)C4)nc3c2)cnc1N (single isomer, unassigned) [Compound 80] | < 5 | < 75 | 5 to 50 | – | < 100 | C (“C” indicates an IC50 ratio of less than 15 fold)

Now from value to compound, other results behind:

Row | IC50 [2] [nM] | IC90 [2] [nM] | IC50 ([3]; Homo sapiens, HAP1, 24 h) [nM] | IC50 [3] [nM] | Structure (SMILES) | IC50 [1] [nM] | Hap1 MTAP intact/deleted ratio [2]
10 | < 5 | < 75 | > 50 | – | COc1ncc(NC(=O)C(=O)N2C[C@@H](C)CC[C@@H]2c2ccc3sc([C@@H]4CCN(C)CC4(C)C)nc3c2)cc1C(N)=O (single isomer, unassigned) [Compound 3] | < 100 | B (“B” indicates an IC50 ratio greater than or equal to 15 fold but lower than 30 fold)
11 | < 5 | < 75 | > 50 | – | COc1ncc(NC(=O)C(=O)N2C[C@@H](C)CC[C@@H]2c2ccc3sc([C@H]4C[C@@H](N(C)C)C4)nc3c2)cc1C(N)=O (single isomer, unassigned) [Compound 24] | < 100 | A (“A” indicates an IC50 ratio greater than or equal to 30 fold)
12 | < 5 | < 75 | > 50 | – | COc1ncc(NC(=O)C(=O)N2C[C@@H](C)CC[C@@H]2c2ccc3sc([C@@H]4CN(C)C(C)(C)C4)nc3c2)cc1C(N)=O (single isomer, unassigned) [Compound 30] | < 100 | B (“B” indicates an IC50 ratio greater than or equal to 15 fold but lower than 30 fold)
13 | < 5 | < 75 | > 50 | – | COc1ncc(NC(=O)C(=O)N2C[C@@H](C)CC[C@@H]2c2ccc3sc([C@H]4CCN(C)C[C@@H]4OC)nc3c2)cc1C(N)=O (single isomer, unassigned) [Compound 35] | < 100 | A (“A” indicates an IC50 ratio greater than or equal to 30 fold)
14 | < 5 | < 75 | > 50 | – | COc1ncc(NC(=O)C(=O)N2C[C@@H](C)CC[C@@H]2c2ccc3sc([C@H]4CN(C)CC4(C)C)nc3c2)cc1C(N)=O (single isomer, unassigned) [Compound 36] | < 100 | A (“A” indicates an IC50 ratio greater than or equal to 30 fold)
15 | < 5 | < 75 | 5 to 50 | – | CCc1cc(NC(=O)C(=O)N2C[C@@H](C)CC[C@@H]2c2ccc3sc([C@H]4CN(C)CC(C)(C)C4)nc3c2)cnc1N (single isomer, unassigned) [Compound 45] | < 100 | B (“B” indicates an IC50 ratio greater than or equal to 15 fold but lower than 30 fold)
16 | < 5 | < 75 | > 50 | – | COc1ncc(NC(=O)C(=O)N2C[C@@H](C)CC[C@@H]2c2ccc3sc([C@H]4C[C@H](N(C)C)C4)nc3c2)cc1C(N)=O (single isomer, unassigned) [Compound 50] | < 100 | A (“A” indicates an IC50 ratio greater than or equal to 30 fold)
17 | < 5 | < 75 | > 50 | – | COc1ncc(NC(=O)C(=O)N2C[C@@H](C)CC[C@@H]2c2ccc3sc([C@H]4C[C@@H]5CN(C)C[C@@H]5C4)nc3c2)cc1C(N)=O (single isomer, unassigned) [Compound 67] | < 100 | A (“A” indicates an IC50 ratio greater than or equal to 30 fold)
18 | < 5 | < 75 | > 50 | – | COc1ncc(NC(=O)C(=O)N2C[C@@H](C)CC[C@@H]2c2ccc3sc([C@@H]4CCN(C)C[C@H]4OC)nc3c2)cc1C(N)=O (single isomer, unassigned) [Compound 68] | < 100 | A (“A” indicates an IC50 ratio greater than or equal to 30 fold)
19 | < 5 | < 75 | 5 to 50 | – | COc1ncc(NC(=O)C(=O)N2C[C@@H](C)CC[C@@H]2c2ccc3sc([C@@H]4CN(C)CC4(C)C)nc3c2)cc1C(N)=O (single isomer, unassigned) [Compound 74] | < 100 | B (“B” indicates an IC50 ratio greater than or equal to 15 fold but lower than 30 fold)
